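A five-concentration, 48-hour dose response in 96-well plates underlies each endpoint, interpolated linearly between surrounding concentrations. TGI: concentration producing complete growth inhibition.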
What was measured:
Experiment in all cases: NCI-60 cell line screen, 48 h
786-0 renal = test system: 786-0 renal
A549 NSCLC = test system: A549 NSCLC
ACHN renal = test system: ACHN renal
CAKI-1 renal = test system: CAKI-1 renal
CCRF-CEM leukemia = test system: CCRF-CEM leukemia
COLO 205 colon = test system: COLO 205 colon
DLD-1 colon = test system: DLD-1 colon
DMS 114 small cell lung = test system: DMS 114 small cell lung
DMS 273 small cell lung = test system: DMS 273 small cell lung
HCC-2998 colon = test system: HCC-2998 colon
HCT-116 colon = test system: HCT-116 colon
HCT-15 colon = test system: HCT-15 colon
HL-60(TB) leukemia = test system: HL-60(TB) leukemia
HOP-62 NSCLC = test system: HOP-62 NSCLC
HOP-92 NSCLC = test system: HOP-92 NSCLC
HT29 colon = test system: HT29 colon
IGROV1 ovarian = test system: IGROV1 ovarian
K-562 leukemia = test system: K-562 leukemia
KM12 colon = test system: KM12 colon
KM20L2 colon = test system: KM20L2 colon
LXFL 529 NSCLC = test system: LXFL 529 NSCLC
M14 melanoma = test system: M14 melanoma
M19-MEL melanoma = test system: M19-MEL melanoma
MALME-3M melanoma = test system: MALME-3M melanoma
MOLT-4 leukemia = test system: MOLT-4 leukemia
NCI-H226 lung = test system: NCI-H226 lung
NCI-H23 lung = test system: NCI-H23 lung
NCI-H460 lung = test system: NCI-H460 lung
NCI-H522 lung = test system: NCI-H522 lung
OVCAR-3 ovarian = test system: OVCAR-3 ovarian
OVCAR-4 ovarian = test system: OVCAR-4 ovarian
OVCAR-5 ovarian = test system: OVCAR-5 ovarian
OVCAR-8 ovarian = test system: OVCAR-8 ovarian
RPMI-8226 leukemia = test system: RPMI-8226 leukemia
SF-268 CNS = test system: SF-268 CNS
SF-295 CNS = test system: SF-295 CNS
SF-539 CNS = test system: SF-539 CNS
SK-MEL-2 melanoma = test system: SK-MEL-2 melanoma
SK-MEL-28 melanoma = test system: SK-MEL-28 melanoma
SK-MEL-5 melanoma = test system: SK-MEL-5 melanoma
SNB-19 CNS = test system: SNB-19 CNS
SNB-75 CNS = test system: SNB-75 CNS
SR leukemia = test system: SR leukemia
SW-620 colon = test system: SW-620 colon
TK-10 renal = test system: TK-10 renal
U251 CNS = test system: U251 CNS
UACC-257 melanoma = test system: UACC-257 melanoma
UACC-62 melanoma = test system: UACC-62 melanoma
UO-31 renal = test system: UO-31 renal
XF 498 CNS = test system: XF 498 CNS

Measured: TGI

COC1CC(n2cnc3c(N)ncnc32)OC1CO (stereo not given)
> 100 µM: all assays above
